Measured values published in PubChem BioAssay (NCI).
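A five-concentration, 48-hour dose response in 96-well plates underlies each endpoint, interpolated linearly between surrounding concentrations. GI50 = concentration required for 50% inhibition of growth. TGI marks complete inhibition of growth.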

Tested on: HL-60(TB) leukemia
Assay: growth of human tumour cells (NCI), 48 h

SMILES | GI50 | TGI
COc1ccc(-c2nn(-c3cccc(Cl)c3)cc2-c2nc(N)[nH]c(=O)c2C#N)cc1 | 3960 nM | 14.2 µM
COC(=O)C(=O)CC(=O)c1cccc(OC)c1 | – | > 100 µM
COc1cc2c3c(n(CCCN(CCO)CCO)c(=O)c2cc1OC)-c1cc2c(cc1C3=O)OCO2 | < 10 nM | 2.29 µM
CNCCn1c(=O)c2cc(OC)c(OC)cc2c2cnc3cc4c(cc3c21)OCO4 | < 10 nM | 0.111 µM
Cn1cc(S(=O)(=O)N2CCC3=Cc4c(cnn4-c4ccc(F)cc4)C[C@]3(C(=O)c3cc(C(F)(F)F)ccn3)C2)cn1 | > 100000 nM | > 100 µM
COc1ccc2c(c1)C(C)Cc1c(ncnc1-n1cnc3ccccc31)N2C (stereo unspecified) | 352 nM | 3.74 µM
N#CC(C#N)=C1CCCOc2c1ccc1ccccc21 | 16700 nM | 36 µM
C=CCn1c(SCC(=O)Nc2ccc(C(=O)/C=C/c3cc(OC)c(OC)c(OC)c3)cc2)nnc1-c1ccc(OC)cc1 | 473 nM | –
O=C(Nc1ccc(Cl)cc1)Nc1nccs1 | 2300 nM | 10.2 µM
NCCCOc1cc2ccccc2cc1C(=O)NCCCOc1cc2ccccc2cc1C(=O)Nc1ccc(Cl)cc1O | 512 nM | 2.2 µM
O=C1/C(=C/N2N=C(c3ccc4ccccc4c3)CC2c2ccccc2O)SC(=S)N1c1cccnc1 (stereo unspecified) | 616 nM | > 100 µM
c1ccc2c(c1)c1ccccc1c1ccccc21 | > 100000 nM | > 100 µM
Cc1c2c(C(N)=O)nccc2c(C)c2c1c1ccccc1n2Cc1ccccc1 | – | 47 µM
NC(=O)CNc1ccc([As]=[As]c2ccc(NCC(N)=O)cc2)cc1 (stereo unspecified) | 1750 nM | 9.26 µM

Tested on: HT29 colon
Assay: growth of human tumour cells (NCI), 48 h

SMILES | GI50 | TGI
COc1ccc(-c2nn(-c3cccc(Cl)c3)cc2-c2nc(N)[nH]c(=O)c2C#N)cc1 | 4290 nM | 20 µM
COC(=O)C(=O)CC(=O)c1cccc(OC)c1 | – | > 100 µM
COc1cc2c3c(n(CCCN(CCO)CCO)c(=O)c2cc1OC)-c1cc2c(cc1C3=O)OCO2 | < 10 nM | 1.03 µM
CNCCn1c(=O)c2cc(OC)c(OC)cc2c2cnc3cc4c(cc3c21)OCO4 | 11.9 nM | 0.11 µM
Cn1cc(S(=O)(=O)N2CCC3=Cc4c(cnn4-c4ccc(F)cc4)C[C@]3(C(=O)c3cc(C(F)(F)F)ccn3)C2)cn1 | 89700 nM | > 100 µM
COc1ccc2c(c1)C(C)Cc1c(ncnc1-n1cnc3ccccc31)N2C (stereo unspecified) | 336 nM | 1.43 µM
NCCCn1c2c(c3ccccc3c1=O)C(=O)c1ccccc1-2 | 128 nM | 15.4 µM
COc1ccc(/C=C/c2cnccn2)cc1OC | – | > 10 µM
N#CC(C#N)=C1CCCOc2c1ccc1ccccc21 | > 100000 nM | > 100 µM
COc1cc2c3c(n(CCCN(C)CCO)c(=O)c2cc1OC)-c1cc2c(cc1C3=O)OCO2 | 9060 nM | > 75.2 µM
C=CCn1c(SCC(=O)Nc2ccc(C(=O)/C=C/c3cc(OC)c(OC)c(OC)c3)cc2)nnc1-c1ccc(OC)cc1 | 237 nM | 0.532 µM
C=C1C(O)C2C(=C(C)C13CC3)C(=O)C(C)(C)C2OC (stereo unspecified) | > 100000 nM | > 100 µM
COc1cc(C(=O)O[C@H](C(N)=O)[C@]2(C)CO2)c2cccc(C)c2c1 | < 41.8 nM | –
O=C(Nc1ccc(Cl)cc1)Nc1nccs1 | 511 nM | 27.1 µM
Cc1sc2c(c1C)C(c1ccc(Cl)cc1)=N[C@@H](CC(=O)Nc1ccc(OCCOCCOCCOCCNc3cccc4c3C(=O)N(C3CCC(=O)NC3=O)C4=O)cc1)c1nnc(C)n1-2 (stereo partly specified) | 314 nM | > 100 µM
NCCCOc1cc2ccccc2cc1C(=O)NCCCOc1cc2ccccc2cc1C(=O)Nc1ccc(Cl)cc1O | 411 nM | 1.61 µM
O=C1/C(=C/N2N=C(c3ccc4ccccc4c3)CC2c2ccccc2O)SC(=S)N1c1cccnc1 (stereo unspecified) | 3050 nM | > 100 µM
c1ccc2c(c1)c1ccccc1c1ccccc21 | > 100000 nM | > 100 µM
Cc1c2c(C(N)=O)nccc2c(C)c2c1c1ccccc1n2Cc1ccccc1 | – | 37.1 µM

Tested on: KM12 colon
Assay: growth of human tumour cells (NCI), 48 h

SMILES | GI50 | TGI
COc1ccc(-c2nn(-c3cccc(Cl)c3)cc2-c2nc(N)[nH]c(=O)c2C#N)cc1 | 3840 nM | 15.2 µM
COC(=O)C(=O)CC(=O)c1cccc(OC)c1 | – | > 100 µM
COc1cc2c3c(n(CCCN(CCO)CCO)c(=O)c2cc1OC)-c1cc2c(cc1C3=O)OCO2 | 365 nM | 1.84 µM
CNCCn1c(=O)c2cc(OC)c(OC)cc2c2cnc3cc4c(cc3c21)OCO4 | 48.3 nM | 1.6 µM
Cn1cc(S(=O)(=O)N2CCC3=Cc4c(cnn4-c4ccc(F)cc4)C[C@]3(C(=O)c3cc(C(F)(F)F)ccn3)C2)cn1 | 75800 nM | > 100 µM
COc1ccc2c(c1)C(C)Cc1c(ncnc1-n1cnc3ccccc31)N2C (stereo unspecified) | 444 nM | 12.1 µM
NCCCn1c2c(c3ccccc3c1=O)C(=O)c1ccccc1-2 | 124 nM | 2.65 µM
COc1ccc(/C=C/c2cnccn2)cc1OC | – | > 10 µM
O=C(NC1CCCCC1)c1ccc(Nc2ncnc3c2cnn3-c2ccccc2)cc1 | 57800 nM | > 100 µM
N#CC(C#N)=C1CCCOc2c1ccc1ccccc21 | > 100000 nM | > 100 µM
COc1cc2c3c(n(CCCN(C)CCO)c(=O)c2cc1OC)-c1cc2c(cc1C3=O)OCO2 | 11400 nM | 45.7 µM
C=CCn1c(SCC(=O)Nc2ccc(C(=O)/C=C/c3cc(OC)c(OC)c(OC)c3)cc2)nnc1-c1ccc(OC)cc1 | 315 nM | 1.5 µM
C=C1C(O)C2C(=C(C)C13CC3)C(=O)C(C)(C)C2OC (stereo unspecified) | > 100000 nM | > 100 µM
O=C(Nc1ccc(Cl)cc1)Nc1nccs1 | 491 nM | 19.4 µM
Cc1sc2c(c1C)C(c1ccc(Cl)cc1)=N[C@@H](CC(=O)Nc1ccc(OCCOCCOCCOCCNc3cccc4c3C(=O)N(C3CCC(=O)NC3=O)C4=O)cc1)c1nnc(C)n1-2 (stereo partly specified) | – | > 100 µM
